Measurements published in patent publication EP0326331B1, “Substituted quinolines and cinnolines” (Dow AgroSciences LLC, priority 1988, dated 1989).
Where two headings read alike, the source gives them in different places.

Columns and labels:
Type in all cases: in vivo
[1] = tested on: Twospotted spider mites (Tetranychus urticae Koch); test: Mite/insect screen, SM; details: Tetranychus urticae, percent mortality, read-out: SM RESULTS %
In short: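 Foliar spray to runoff (10 psi), 1 h drying; aqueous dilutions from acetone/alcohol emulsifier stock. Mortality (%) after standard exposure.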

[2] = tested on: Pyricularia oryzae (rice blast); test: whole plant or invertebrate; details: for RICE BLAST: disease control rating, foliar spray on rice, 400 ppm (+++ at 100 ppm); for pest or weed control at 400 ppm: Pyricularia oryzae, foliar, read-out: RICE BLAST, Test 1, foliar spray on rice, disease control rating at 400 ppm / 100 ppm
corn rootworm = test: Mite/insect screen, CRW; details: percent mortality, read-out: CRW RESULTS %
In short: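 Read-out: % mortality after standard exposure. Formulation: acetone/alcohol (50:50) with emulsifiers at 23 g and 13 g per liter, water-diluted to final test levels.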

[3] = tested on: Puccinia recondita tritici (leaf rust); test: Test 1 greenhouse foliar spray screen, leaf rust on wheat; details: for LEAF RUST: disease control rating, foliar spray on wheat, 400 ppm (+++ at 100 ppm); for pest or weed control at 400 ppm: Puccinia recondita, foliar, Test 1, foliar spray on wheat, disease control rating at 400 ppm / 100 ppm
[4] = tested on: southern armyworm (Spodopetra eridania Cramer); test: Mite/insect screen, SAW; details: Spodoptera eridania, percent mortality, read-out: SAW RESULTS %
In short: (§1)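 Read-out: percent mortality after standard exposure periods. Test solutions were water dilutions of compound dissolved in acetone/alcohol (50:50) with emulsifier blends; leaves were sprayed to runoff on both surfaces and air-dried for one hour before exposure.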

[5] = tested on: Cercospora beticola (leaf spot); test: Test 1 greenhouse foliar spray screen, leaf spot on sugar beet; details: for LEAF SPOT: disease control rating, foliar spray on sugar beet, 400 ppm (+++ at 100 ppm); for pest or weed control at 400 ppm: Cercospora beticola, Test 1, foliar spray on sugar beet, disease control rating at 400 ppm / 100 ppm
[6] = tested on: Botrytis cinerea (gray mold); test: Test 1 greenhouse foliar spray screen, gray mold on grape berries; details: for GRAY MOLD: disease control rating, spray on grape berries, 400 ppm (+++ at 100 ppm); for pest or weed control at 400 ppm: Botrytis cinerea, foliar, Test 1, spray on grape berries, disease control rating at 400 ppm / 100 ppm
[7] = tested on: Septoria tritici (leaf blotch); test: Test 1 greenhouse foliar spray screen, leaf blotch on wheat; details: for LEAF BLOT: disease control rating, foliar spray on wheat, 400 ppm (+++ at 100 ppm); for pest or weed control at 400 ppm: Zymoseptoria tritici, Test 1, foliar spray on wheat, disease control rating at 400 ppm / 100 ppm, read-out: LEAF BLOT
[8] = tested on: melon aphids (Aphis gossypii Glover); test: Mite/insect screen, MA; details: Aphis gossypii, percent mortality, read-out: MA RESULTS %
In short: as §1

[9] = tested on: Erysiphe graminis tritici (powdery mildew); test: Test 1 greenhouse foliar spray screen, powdery mildew on wheat; details: for POWD MDEW: disease control rating, foliar spray on wheat, 400 ppm (+++ at 100 ppm); for pest or weed control at 400 ppm: Blumeria graminis, foliar, Test 1, foliar spray on wheat, disease control rating at 400 ppm / 100 ppm, read-out: POWD MDEW
[10] = tested on: Venturia inaequalis (apple scab); test: Test 1 greenhouse foliar spray screen, apple scab on apple seedling; details: for APPL SCAB: disease control rating, foliar spray on apple seedling, 400 ppm (+++ at 100 ppm); for pest or weed control at 400 ppm: Venturia inaequalis, Test 1, foliar spray on apple seedling, disease control rating at 400 ppm / 100 ppm, read-out: APPL SCAB
[11] = tested on: Pseudoperonospora cubensis (downy mildew); test: Test 1 greenhouse foliar spray screen, downy mildew on squash; details: for DOWN MDEW: disease control rating, foliar spray on squash, 400 ppm (+++ at 100 ppm); for pest or weed control at 400 ppm: Pseudoperonospora cubensis, foliar, Test 1, foliar spray on squash, disease control rating at 400 ppm / 100 ppm, read-out: DOWN MDEW
[12] = foliar, rate 200 ppm, foliar spray on squash
[13] = foliar, rate 400 ppm, foliar spray on squash

| SMILES | mortality at 400 ppm ([1]; SAW, SM & MA RATE 400 PPM) [%] | RICE BLAST [2] | mortality at 24 ppm (corn rootworm; CRW RATE 24.00 PPM) [%] | LEAF RUST [3] | mortality at 400 ppm ([4]; SAW, SM & MA RATE 400 PPM) [%] | LEAF SPOT [5] | GRAY MOLD [6] | LEAF BLOT [7] | mortality at 400 ppm ([8]; SAW, SM & MA RATE 400 PPM) [%] | POWD MDEW [9] | APPL SCAB [10] | DOWN MDEW [11] | mortality at 200 ppm ([1]; SAW, SM & MA RATE 200 PPM) [%] | mortality at 12 ppm (corn rootworm; CRW RATE 12.00 PPM) [%] | mortality at 200 ppm ([4]; SAW, SM & MA RATE 200 PPM) [%] | mortality at 200 ppm ([8]; SAW, SM & MA RATE 200 PPM) [%] | also measured |
| --- | --- | --- | --- | --- | --- | --- | --- | --- | --- | --- | --- | --- | --- | --- | --- | --- | --- |
| CN(c1ccc(F)cc1)c1ccnc2cc(Cl)ccc12 [Example 106, 7-chloro-N-(4-fluorophenyl)-N-methyl-4-quinolinamine] | 0 | + (20-89% control at 400 ppm) | 0 | + (20-89% control at 400 ppm) | 0 | + (20-89% control at 400 ppm) | - (0-19% control at 400 ppm) | + (20-89% control at 400 ppm) | 0 | ++ (90-100% control at 400 ppm) | - (0-19% control at 400 ppm) | + (20-89% control at 400 ppm) |  |  |  |  |  |
| Cc1ccc2nccc(NCCc3ccc(Cl)cc3Cl)c2c1 [Example 53, .N-[2-(2,4-dichlorophenyl)ethyl]-6-methyl-4-quinolinamine] | 0 | + (20-89% control at 400 ppm) | 0 | + (20-89% control at 400 ppm) | 0 | +++ (90-100% control at 100 ppm) | - (0-19% control at 400 ppm) | + (20-89% control at 400 ppm) | 0 | +++ (90-100% control at 100 ppm) | - (0-19% control at 400 ppm) | +++ (90-100% control at 100 ppm) | 0 | 0 | 0 | 0 |  |
| Cc1ccc2c(NCCc3ccc(Cl)cc3)ccnc2c1C [Example 88, N-[2-(4-chlorophenyl)ethyl]-7,8-dimethyl-4-quinolinamine] | 0 | - (0-19% control at 400 ppm) | 0 | ++ (90-100% control at 400 ppm) | 0 | + (20-89% control at 400 ppm) | - (0-19% control at 400 ppm) | - (0-19% control at 400 ppm) | 0 | - (0-19% control at 400 ppm) | - (0-19% control at 400 ppm) | ++ (90-100% control at 400 ppm) | 0 | 0 | 0 | 0 |  |
| CC(=O)N(CCc1ccc(C)cc1)c1ccnc2ccc(C)cc12 [Example 122, N-[2-(4-methylphenyl)ethyl]-N-(6-methyl-4-quinolinyl)acetamide] | 0 | ++ (90-100% control at 400 ppm) | 0 | + (20-89% control at 400 ppm) | 0 | - (0-19% control at 400 ppm) | - (0-19% control at 400 ppm) | - (0-19% control at 400 ppm) | 0 | - (0-19% control at 400 ppm) | - (0-19% control at 400 ppm) | ++ (90-100% control at 400 ppm) | 0 | 0 | 0 | 0 |  |
| Cc1cc(NCCc2ccc(Cl)cc2)c2cc(F)ccc2n1 [Example 57, N-[2-(4-chlorophenyl)ethyl]-2-methyl-6-fluoro-4-quinolinamine] | 0 | ++ (90-100% control at 400 ppm) | 0 | + (20-89% control at 400 ppm) | 50 | +++ (90-100% control at 100 ppm) | - (0-19% control at 400 ppm) | - (0-19% control at 400 ppm) | 0 | - (0-19% control at 400 ppm) | - (0-19% control at 400 ppm) | ++ (90-100% control at 400 ppm) | 0 | 0 | 40 | 0 |  |
| c1ccc(CCNc2ccnc3c(NCCc4ccccc4)cccc23)cc1 [Example 189, N,N'-bis(2-phenylethyl)-4,8-quinolinediamine] |  |  |  |  |  |  |  |  |  |  |  |  |  |  |  |  | mortality at 200 ppm [1, 12]: 0%; pest or weed control at 400 ppm [2]: 20 to 89%; mortality at 12 ppm (corn rootworm; CRW rate 12.00 ppm): 0%; pest or weed control at 400 ppm [3]: 20 to 89%; mortality at 200 ppm [4, 12]: 0%; pest or weed control at 400 ppm [5]: 0 to 19%; pest or weed control at 400 ppm [6]: 0 to 19%; pest or weed control at 400 ppm [7]: 0 to 19%; mortality at 200 ppm [8, 12]: 0%; pest or weed control at 400 ppm [9]: 0 to 19%; pest or weed control at 400 ppm [10]: 0 to 19%; pest or weed control at 400 ppm [11]: 20 to 89% |
| Fc1ccc2c(OCCc3ccc(Cl)cc3)ccnc2c1 [Example 234, 4-[2-(4-chlorophenyl)ethoxy]-7-fluoroquinoline] |  |  |  |  |  |  |  |  |  |  |  |  |  |  |  |  | mortality at 200 ppm [1, 12]: 50%; mortality at 400 ppm [1, 13]: 30%; pest or weed control at 400 ppm [2]: 20 to 89%; mortality at 12 ppm (corn rootworm; CRW rate 12.00 ppm): 0%; mortality at 24 ppm (corn rootworm; CRW rate 24.00 ppm): 0%; pest or weed control at 400 ppm [3]: 90 to 100%; mortality at 200 ppm [4, 12]: 60%; mortality at 400 ppm [4, 13]: 0%; pest or weed control at 400 ppm [5]: 20 to 89%; pest or weed control at 400 ppm [6]: 0 to 19%; pest or weed control at 400 ppm [7]: 20 to 89%; mortality at 200 ppm [8, 12]: 50%; mortality at 400 ppm [8, 13]: 100%; pest or weed control at 400 ppm [9]: 20 to 89%; pest or weed control at 400 ppm [10]: 0 to 19%; pest or weed control at 400 ppm [11]: 20 to 89% |
| Fc1cccc2c(NCCc3ccc(Cl)c(Cl)c3)ccnc12 [Example 75, N-[2-(3,4-dichlorophenyl)ethyl]-8-fluoro-4-quinolinamine] |  | + (20-89% control at 400 ppm) |  | ++ (90-100% control at 400 ppm) |  | - (0-19% control at 400 ppm) | - (0-19% control at 400 ppm) | + (20-89% control at 400 ppm) |  | + (20-89% control at 400 ppm) | - (0-19% control at 400 ppm) | +++ (90-100% control at 100 ppm) | 0 | 0 | 0 | 0 |  |
| CC(CNc1ccnc2c(F)cccc12)c1ccccc1 (centres unmarked) [Example 77, 8-fluoro-N-(2-phenylpropyl)-4-quinolinamine] |  | + (20-89% control at 400 ppm) |  | ++ (90-100% control at 400 ppm) |  | - (0-19% control at 400 ppm) | - (0-19% control at 400 ppm) | - (0-19% control at 400 ppm) |  | + (20-89% control at 400 ppm) | + (20-89% control at 400 ppm) | +++ (90-100% control at 100 ppm) | 0 | 0 | 0 | 0 |  |
